# Where two headings read alike, the source gives them in different places.
# B1: anti-Tac: anti-Tac (i.e., Zenapax from Hoffman-LaRoche), binds CD25 with high affinity (antibody, chains of the INN, looked up, V domains shown)
# VH: QVQLVQSGAEVKKPGSSVKVSCKASGYTFTSYRMHWVRQAPGQGLEWIGYINPSTGYTEYNQKFKDKATITADESTNTAYMELSSLRSEDTAVYYCARGGGVFDYWGQGTLVTVSS
# VL: DIQMTQSPSTLSASVGDRVTITCSASSSISYMHWYQQKPGKAPKLLIYTTSNLASGVPARFSGSGSGTEFTLTISSLQPDDFATYYCHQRSTYPLTFGQGTKVEVK
# How the values were obtained:
# N87 cells = test: N87 proliferation measured by tritiated-thymidine incorporation; type: cell-based
# Method: N87 cells were exposed to the 17-demethoxy-17-aminoderivative of geldanamycin indicated in Table 1 below, and the concentration at which the proliferation of the N87 cells was inhibited by 50% was determined in nanomolar units.
# HuT102 cells = test: Internalization of radiolabeled antibody by HuT102 cells; type: cell-based; settings: cells washed with dilute acid
# Method: This example employs three antibodies, e21, AE1 (from Landolfi, Protein Design Labs, California), and anti-Tac (i.e., Zenapax from Hoffman-LaRoche, Inc., Nutley, N.J.). The antibodies e21 and AE1 bind Her2 with high affinity, and anti-Tac binds CD25 with high affinity. All three antibodies were radiolabeled and incubated with cells expressing the respective ligands on their cell surfaces (N87 cells for e21 and AE1 and HuT102 cells for anti-Tac). Both N87 cells and HuT102 cells are cancer cells that are known to be sensitive to the effects of geldanamycin. (HuT102 cells are cultured cells from an ATL patient available from the inventor's laboratories.) The cells were washed with dilute acid to remove unincorporated radiolabel, and the amount of radiolabel remaining in the cells was measured as an indication of the amount of antibody internalized.
# [1] = tritiated-thymidine incorporation, read-out: concentration that inhibited 50% of the N87 proliferation
molecule,measurement,setting,value
17-cys-GMB-aminopropylaminogeldanamycin [compound 4],solubility in water,Solubility in water,water-soluble
"COC1C=CC=C(C)C(=O)NC2=CC(=O)C(NCCCN)=C(CC(C)CC(OC)C(O)C(C)C=C(C)C1OC(N)=O)C2=O (centres unmarked) [17-aminopropylamino-geldanamycin, 17-aminopropylaminogeldanamycin]",IC50,N87 cells; [1],180 nM
COC1=C2C[C@@H](C)C[C@H](OC)[C@H](O)[C@@H](C)/C=C(\C)[C@H](OC(N)=O)[C@@H](OC)/C=C\C=C(/C)C(=O)NC(=CC1=O)C2=O [geldanamycin],IC50,"N87 cells; Table 1, read-out: IC50 (nM), proliferation of N87 cells inhibited by 50%",8.4 nM
same,IC50,N87 cells; [1],8 nM
B1,radiolabel taken up by HuT102 cells (antibody internalized),HuT102 cells,no significant quantity

# — US7026350B2, “Water-soluble drugs and methods for their production” (The United States of America as represented by the …, priority 1998, dated 2006)
